The values that follow come from paper PMC6891541, “α-Glucosidase and Pancreatic Lipase Inhibitory Activities of Diterpenes from Indian Mango Ginger (Curcuma amada Roxb.) and Its Derivatives” (Molecules, 2019).

The target in data set [1] is T1, porcine pancreas lipase (Sus scrofa, UniProt P00591).
T1 construct: from tissue; host or cells: porcine pancreas
T1 sequence (P00591 1-450): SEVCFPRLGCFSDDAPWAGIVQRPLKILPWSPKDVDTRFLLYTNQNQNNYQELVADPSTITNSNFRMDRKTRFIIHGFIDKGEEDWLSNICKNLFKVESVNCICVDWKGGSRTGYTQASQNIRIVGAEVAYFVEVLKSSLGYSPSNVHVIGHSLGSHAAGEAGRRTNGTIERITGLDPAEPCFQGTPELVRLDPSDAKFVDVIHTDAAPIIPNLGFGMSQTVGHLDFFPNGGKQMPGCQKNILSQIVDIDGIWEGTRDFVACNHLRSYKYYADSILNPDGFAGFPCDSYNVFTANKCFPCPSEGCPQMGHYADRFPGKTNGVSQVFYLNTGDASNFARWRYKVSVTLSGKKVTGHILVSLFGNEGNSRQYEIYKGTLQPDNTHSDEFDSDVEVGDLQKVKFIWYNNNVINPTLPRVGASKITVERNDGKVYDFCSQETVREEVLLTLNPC
Nature of the data set: pancreatic lipase inhibition, 4-methylumbelliferyl oleate, HPLC fluorescence detection of 4-MU. The settings on record: for IC50: porcine pancreas lipase, 4-methylumbelliferyl oleate substrate, read-out: IC Lipase. In kind it is biochemical. The procedure: For pancreatic lipase inhibitory enzymatic assays, a slightly modified method from that described in a previous paper was used. […] The test sample solution (50 µL) was added to 50 unit/mL of porcine pancreas lipase suspension (50 µL). […] The enzymatic reaction was carried out at 37 °C for 120 min and the reaction was terminated by the addition of citrate buffer (200 µL). After that, the intensity of fluorescent enzymatic product 4-MU was measured by HPLC with fluorescence detection. […] The inhibition percentage was calculated using Equation (2):Inhibition% = [Area (test sample) − Area (sample blank)/Area (control)] × 100(2)
Tetrahydrolipstatin was used as a positive control (Figure 5 and Figure 6).

In data set [2] the test system is human 5-lipoxygenase. The settings on record: cited from earlier work.
Data set [3] concerns α-glucosidase. Set-up: method as in PMID 18179176. The settings on record: cited from earlier work.
Data set [4] has as its system rat intestinal α-glucosidase. The data set is described as follows: α-glucosidase inhibition, rat intestinal acetone powder, pNPG hydrolysis. In kind it is biochemical. The settings on record: for α-glucosidase inhibitory activity (in words): rat intestinal α-glucosidase; for IC50: pNPG substrate, read-out: IC α-Glucosidase. The procedure:
The α-glucosidase activity was calculated by measuring the amount of p-nitrophenol hydrolyzed from pNPG by α-glucosidase. Tested enzyme was prepared using α-glucosidase included in commercial rat intestinal acetone powder (Sigma-Aldrich). […] Sonication was performed 20 times each for durations of 10 s. After centrifugation at 7000× g for 15 min at 4 °C, the supernatant was separated from the pellet. The supernatant was diluted two-fold with 0.1 M phosphate buffer at pH 6.9. The test sample was dissolved in DMSO and then diluted in the same volume of 0.1 M phosphate buffer. The test sample solution (10 µL) was added to a crude enzyme suspension (40 µL). The solution was preincubated at 37 °C for 10 min, then 2.5 mM of pNPG dissolved in 0.1 M phosphate buffer (50 µL) was added to the reaction mixture as the substrate. The enzymatic reaction was carried out at 37 °C for 30 min and the reaction was terminated by the addition of 0.1 M Na2CO3 aq. (900 µL). The absorbance at 405 nm was determined. […] The acarbose was used as a positive control (Figure 4).

The test system of data set [5] is cancer cell lines such as MCF-7, KB and A549. Further details: method as in PMID 21629182. Conditions: cited from earlier work.
The test system of data set [6] is COX2. Further details: method as in doi:10.1016/j.foodchem.2010.06.064. The settings on record: cited from earlier work.
Data set [7] concerns Hep G2 cells. Further details: method as in PMID 30034597. The settings on record: cited from earlier work.
Where [8] appears, read: α-glucosidase from rat intestine acetone powder.

Take `C=C1CCC2C(C)(C)CCC[C@]2(C)[C@H]1C/C=C(/CO)CCOC(C)=O` (stereo partly drawn) [Compound 6, 15-Acetoxy-(E)-labda-8(17),12-diene-16-ol]: the IC50 in data set [1] came out at 102 µM.

Consider `CC1(C)CCC[C@]2(C)[C@@H](C=O)C(C=O)=CC[C@@H]12` [polygodial, reference compound], for which the “human 5-lipoxygenase inhibition (in words)” value in data set [2] was “inhibited human 5-lipoxygenase”. Moreover, the “α-glucosidase inhibition (in words)” value in data set [3] is on record as “did not show α-glucosidase inhibition”.

On to `C=C1CCC2C(C)(C)CCC[C@]2(C)[C@H]1C/C=C(\CC(=O)O)C(=O)O` (stereo partly drawn) [Compound 9, (E)-Labda-8(17),12-diene-15,16-dicarboxylic acid], for which, in data set [1], the IC50 stood at 76.8 µM.

For Albicanal [Compound 3], the IC50 in data set [1] was 666 µM. Besides, in data set [4], the “α-glucosidase inhibitory activity (in words)” value is listed as “did not show any such activity”.

`C[C@H]1O[C@H](O[C@H]2[C@H](O)[C@@H](O)[C@@H](O[C@H]3[C@H](O)[C@@H](O)C(O)O[C@@H]3CO)O[C@@H]2CO)[C@H](O)[C@@H](O)[C@@H]1N[C@H]1C=C(CO)[C@@H](O)[C@H](O)[C@H]1O` (stereo partly drawn) [Acarbose, acarbose, reference compound]: in data set [4] (setting [8]), the “IC50 α-glucosidase” value turned out to be 247 ppm and the IC50 was 380 µM.

Turning to `C=C1CCC2C(C)(C)CCC[C@]2(C)[C@H]1C/C=C(\CCOC(C)=O)COC(C)=O` (stereo partly drawn) [Compound 5, 15,16-Diacetoxyl-(E)-labda-8(17),12-diene], the IC50 in data set [1] was 111 µM.

Turning to `C=C1CC[C@H]2C(C)(C)CCC[C@]2(C)[C@H]1CC=C(C=O)CC(=O)O` (stereo in doubt) [Compound 8, Zerumin A], the IC50 in data set [1] stood at 73.4 µM. Moreover, the “cytotoxicity against cancer cell lines (in words)” value in data set [5] is “strong cytotoxicity”.

Regarding `C=C1CCC2C(C)(C)CCC[C@]2(C)[C@H]1C/C=C(\CC(=O)OC)C(=O)OC` (stereo partly drawn) [Compound 10, (E)-Labda-8(17),12-diene-15,16-dimethylester], the IC50 in data set [1] came to 119 µM.

Consider `C=C1CCC2C(C)(C)CCC[C@]2(C)[C@H]1C/C=C(/C=O)CC=O` (stereo partly drawn) [Compound 1, (E)-Labda-8(17),12-diene-15,16-dial], for which the “human 5-lipoxygenase inhibition (in words)” value in data set [2] was “inhibited human 5-lipoxygenase”. Besides, in data set [6], the “inhibition of COX2 compared with COX1 (in words)” value was “greater inhibition of COX2 than COX1”. The “cytotoxicity in Hep G2 cells (in words)” value in data set [7] is recorded as “without cytotoxicity”. The “α-glucosidase inhibitory activity (in words)” value in data set [4] was “strongest rat intestinal α-glucosidase inhibitory activity”. Besides, in data set [4] (setting [8]), the IC50 turned out to be 8740 µM. Besides, the “cytotoxicity against cancer cell lines (in words)” value in data set [5] is given as “strong cytotoxicity”.

For `CCCCCCCCCCC[C@@H](C[C@@H]1OC(=O)[C@H]1CCCCCC)OC(=O)[C@H](CC(C)C)NC=O` [Tetrahydrolipstatin, reference compound], the Lipase inhibition in data set [1] (at 5.0 Nm, positive control) is given as 94% (5.0 Nm).

As to `C=C1CCC2C(C)(C)CCC[C@]2(C)[C@H]1C/C=C(/CO)CCO` (stereo partly drawn) [Compound 4, (E)-Labda-8(17),12-diene-15,16-diol], the IC50 in data set [1] is 258 µM; in data set [4] (setting [8]), 11600 µM. For the same molecule, the “α-glucosidase inhibitory activity (in words)” value in data set [4] is “strong α-glucosidase inhibition”.

`C=C1CCC2C(C)(C)CCCC2(C)C1C=CC(C)=O` (stereo not drawn) [Compound 2]: the IC50 came out at 14.8 µM in data set [1] and 17500 µM in data set [4] (setting [8]). In addition, the “α-glucosidase inhibitory activity (in words)” value in data set [4] is recorded as “strong α-glucosidase inhibition”. Also, the “cytotoxicity against cancer cell lines (in words)” value in data set [5] is recorded as “did not show cytotoxicity”.

As to `C=C1CCC2C(C)(C)CCC[C@]2(C)[C@H]1C/C=C(\CCO)COC(C)=O` (stereo partly drawn) [Compound 7, 16-Acetoxy-(E)-labda-8(17),12-diene-15-ol], the IC50 in data set [1] amounted to 222 µM.
